Assay results reported in patent US6160017A, “Preventives and remedies for ulcerous colitis and/or crohn's disease” (Zaidan Hojin Biseibutsu Kagaku Kenkyu Kai, priority 1997, dated 2000).

What was measured:
rats = assay: 3-month repeated administration toxicity test on rats; type: in vivo, rat (male Wister); conditions: 3 months
Procedure: Conagenin (100 mg/kg) was intraperitoneally administered repeatedly for 3 months to male Wister rats (aged 6 weeks; 3 rats per group) to evaluate its toxicity using a group dosed with physiological saline as a control. Tests were made for general symptoms, urinalysis, blood test, blood biochemical test, autopsy, organ weight and pathological test.
The judgment of the test items was conducted in accordance with "Guideline of Toxicity Testing Methods".

Mouse = assay: Single administration toxicity test on mice; type: in vivo
Procedure: (§1) Conagenin (500 mg/kg) was singly administered intravenously, intraperitoneally, subcutaneously or orally to mice and rats to investigate its toxicity.

[1] = Single administration toxicity test on mice; type: in vivo, mouse; conditions: in vivo; mouse, intravenous
Procedure: as §1

[2] = Single administration (acute) toxicity test on rats; type: in vivo; conditions: in vivo, rat
Procedure: as §1

Rat = assay: as above; type: in vivo
Procedure: as §1

[3] = test system: trinitrobenzenesulfonic acid (TNBS)-induced rat colitis models; assay: Effect on trinitrobenzenesulfonic acid (TNBS)-induced rat colitis model; type: in vivo, rat (male Wister); conditions: for Wet weight of large intestine: conagenin 50 mg/kg i.v., salazosulfapyridine 300 mg/kg p.o., daily, untreated 1.571 ± 0.161, saline 1.723 ± 0.167; for Stage of lesion: number of rats that reached a subacute stage: saline group 4 rats; for Depth of invasion of the ulcer (lamina propria mucosae and submucosal tissue): saline group medium; for Percent change in wet weight against untreated group: untreated 100, TNBS and saline 110
Procedure: Morbid models were prepared by starving male Wister rats (aged 6 weeks; 7 rats per group) for 48 hours, inserting a catheter by 8 cm through the anus of each of the rats under anesthesia with pentobarbital to inject a solution (0.25 ml) with 2,4,6-trinitrobenzenesulfonic acid dissolved in 50% ethanol in a proportion of 80 mg/ml, stopping the anus for about 10 minutes and then allowing it to stand.
Conagenin was intravenously administered to the rats in a dose of 50 mg/kg. Salazosulfapyridine was orally administered as a control agent in a dose of 300 mg/kg. The administration of these test agents was carried out every day from the day before the administration of 2,4,6-trinitrobenzenesulfonic acid to the fourth day after the administration. The rat models were slaughtered at the fifth day after the administration to determine a change in the wet weight of their recta (8 cm) and make a judgment on the basis of the pathological findings thereof.

[4] = test system: acetic acid-induced rat ulcer models; assay: Effect on acetic acid-induced rat ulcer model; type: in vivo, rat (male Donryu:CRJ); conditions: 50 mg/kg i.v.
Procedure: Morbid models were prepared by starving male Donryu:CRJ rats (aged 6 weeks; 9 rats per group) for 24 hours, incising each of their abdomens under etherization to ligate its colon, injecting a 10% aqueous solution (2 ml) of acetic acid into the digestive tract lumen thereof by means of a syringe equipped with a 25 G needle, further injecting air (3 ml) to discharge the acetic acid solution, and then suturing and closing the operated part. Conagenin was intravenously administered to the rats in a dose of 50 mg/kg 24 hours before the preparation of the models and right after the operation. After 24 hours, the rat models were slaughtered to take out their colons and recta. These organs were incised by 10 cm above from the anus to remove their contents. Thereafter, the weight of the organs was measured, and moreover the degree of mucosal disorder was visually observed. The degree of the tissue damage was evaluated using the grades "light", "medium" and "serious".

patients = conditions: double blind test; cited from earlier work
[5] = 100 mg/kg i.p., compared with saline control
[6] = pathological findings of colon, 7 rats per group
[7] = 24 h before and right after operation, 9 rats per group

C[C@@H]([C@@H](C)O)[C@@H](O)C(=O)N[C@@](C)(CO)C(=O)O [Conagenin, (2S)N-[(2R,3S,4R)2,4-dihydroxy-3-methyl-pentanoyl]-2-methylserine]
Death (rats; 100 mg/kg i.p.): None
All items tested (general symptoms, urinalysis, blood test, blood biochemical test, autopsy, organ weight, pathological test) (rats; [5]): no significant change was observed
Blood biochemical test (rats; [5]): No marked change
General symptoms (rats; [5]): No marked change
Hematological test (rats; [5]): No marked change
Pathological test (rats; [5]): No marked change
Urinalysis (rats; [5]): No marked change
Development of toxicity (rats; efficacious dose of 100 mg/kg, rats): no development of toxicity was observed
Death (Mouse; mice, single 500 mg/kg): No death was observed
Abnormal finding of general symptoms (Mouse; mouse, in vivo, 500 mg/kg): no abnormal finding of general symptoms
LD50 [1]: > 500 mg/kg
LD50 ([2]; ip, intraperitoneal): > 500 mg/kg
LD50 ([2]; sc, subcutaneous): > 500 mg/kg
LD50 ([2]; intravenous): > 500 mg/kg
LD50 ([2]; oral): > 500 mg/kg
LD50 ([2]; acute toxicity, rats, oral, subcutaneous, intraperitoneal and intravenous): ≥ 500 mg/kg
Abnormal finding of general symptoms (Rat; rat, in vivo, 500 mg/kg): no abnormal finding of general symptoms
Death (Rat; rats, single 500 mg/kg): No death was observed
Inflammatory change (in words) [3]: exactly the same good result
Therapeutic effect compared with salazosulfapyridine ([3]; conagenin 50 mg/kg i.v. vs salazosulfapyridine 300 mg/kg p.o.): marked therapeutic effect
Wet weight of large intestine [3]: 1.572 ± 0.099 g
Increase in wet weight of the large intestine (in words) ([3]; control (saline) 10%): No increase was observed
Depth of invasion on lamina propria mucosae: number of animals, light [3, 6]: 2
Depth of invasion on lamina propria mucosae: number of animals, no marked change [3, 6]: 5
Depth of invasion on submucosal tissue: number of animals, no marked change [3, 6]: 7
Depth of invasion on tunica muscularis: number of animals, no marked change [3, 6]: 7
Findings of ulceration: number of animals, light [3, 6]: 2
Findings of ulceration: number of animals, no marked change [3, 6]: 5
Inflammatory change: number of animals, light [3, 6]: 1
Inflammatory change: number of animals, no marked change [3, 6]: 6
Stage of lesion: number of rats that reached a subacute stage [3]: 2 rats
Depth of invasion of the ulcer (lamina propria mucosae and submucosal tissue) [3]: light
Percent change in wet weight against untreated group [3]: 100%
Number of animals, grade of inflammation Light (1) [4, 7]: 5
Number of animals, grade of inflammation Medium (2) [4, 7]: 3
Number of animals, grade of inflammation Serious (3) [4, 7]: 1
Grade of inflammation, mean ± SD ([4]; control (physiological saline) 2.38 ± 0.67): 1.50 ± 0.73
Suppressing effect on the inflammatory ulcer compared with the control group ([4]; in words): high suppressing effect

Nc1ccc(O)c(C(=O)O)c1 [mesalazine]
Generalized amelioration rate (patients): 68.8%
Incidence rate of the side effect (patients): 11.5%

O=C(O)c1cc(/N=N/c2ccc(S(=O)(=O)Nc3ccccn3)cc2)ccc1O [salazosulfapyridine]
Generalized amelioration rate (patients): 63.5%
Incidence rate of the side effect (patients): 28.1%
Wet weight of large intestine [3]: 1.641 ± 0.140 g
Increase in wet weight of the large intestine ([3]; control (saline) 10%): 4%
Depth of invasion on lamina propria mucosae: number of animals, light [3, 6]: 2
Depth of invasion on lamina propria mucosae: number of animals, medium [3, 6]: 2
Depth of invasion on lamina propria mucosae: number of animals, no marked change [3, 6]: 3
Depth of invasion on submucosal tissue: number of animals, light [3, 6]: 2
Depth of invasion on submucosal tissue: number of animals, no marked change [3, 6]: 5
Depth of invasion on tunica muscularis: number of animals, no marked change [3, 6]: 7
Findings of ulceration: number of animals, light [3, 6]: 2
Findings of ulceration: number of animals, medium [3, 6]: 2
Findings of ulceration: number of animals, no marked change [3, 6]: 3
Inflammatory change: number of animals, light [3, 6]: 2
Inflammatory change: number of animals, medium [3, 6]: 1
Inflammatory change: number of animals, no marked change [3, 6]: 4
Stage of lesion: number of rats that reached a subacute stage [3]: 4 rats
Depth of invasion of the ulcer (lamina propria mucosae and submucosal tissue) [3]: medium
Percent change in wet weight against untreated group [3]: 104%
